Assay results from US7687083B2, “Pharmaceutical compositions comprising old man's beard (Usnea barbata) and St. John's wort (Hypericum perforatum) and their use” (Universitatsklinikum Freiburg, priority 2004, dated 2010).
≈ marks a conversion by molar mass, not a printed value.

Experiments:
[1] = test system: Pityrosporon ovale; assay: oil submersion test on Sabouraud agar with scales of patients with seborrhoeal eczema; assay type: cell-based; settings: 1% in olive oil; incubation for 4 days
Description: In addition, the efficacy against pityrosporon of 1% Usnea extract in olive oil in comparison with 1% amphotericin was investigated. For this purpose, scales of patients with seborrhoeal eczema were applied to Sabouraud agar and covered with a layer of the oil. After incubation for 4 days in an incubator, the number of colony-forming units was counted.

[2] = UV erythema test; assay type: in vivo, healthy test persons; settings: 1.5 times MED UVB, applied in Finn chambers for 24 hours; FIG. 5
Description: The minimal erythema dose for UVB was determined in the case of seven healthy test persons. Thereafter, test fields on the back were exposed to 1.5 times the minimal erythema dose (MED). The test substances were applied in Finn chambers for 24 hours. The UV-induced erythema was determined photometrically before exposure and after action of the substances.

[3] = test system: Propionibacterium acnes; assay: agar dilution test (MIC/MBC); assay type: cell-based; settings: Cutibacterium acnes
Description: The old man's beard CO2 extract (Usnea barbata L.) was tested in the concentrations 1:10, 1:50, 1:100, 1:500 and 1:1000 in the agar dilution test for a number of aerobic and anaerobic bacteria. The pure substance usnic acid was tested in concentrations of 128/64/32/16/8/4/2/1/0.5/0.25 and 0.125 μg/ml. The MIC (minimum inhibitory concentration) is defined as >90% inhibition of bacterial growth after 24 h. The MBC (minimum bactericidal concentration) is defined as >90% inhibition of the growth at 48 h.

C[C@@H]1[C@H](O)[C@@H](C)/C=C/C=C/C=C/C=C/C=C/C=C/C=C/[C@H](O[C@@H]2O[C@H](C)[C@@H](O)[C@H](N)[C@@H]2O)C[C@@H]2O[C@](O)(C[C@@H](O)C[C@@H](O)[C@H](O)CC[C@@H](O)C[C@@H](O)CC(=O)O[C@H]1C)C[C@H](O)[C@H]2C(=O)O [1% Amphotericin in olive oil, amphotericin]
growth of the pityrosporon yeast fungi [1]: inhibited completely | number of colony-forming units [1]: 1 CFU

CCOC(=O)O[C@]1(C(=O)COC(=O)CC)CC[C@H]2[C@@H]3CCC4=CC(=O)C=C[C@]4(C)[C@H]3[C@@H](O)C[C@@]21C [Prednicarbate]
UV-induced inflammation (erythema, photometric) [2]: inhibit the UV-induced inflammation

CC(=O)c1c(O)c(C)c(O)c2c1OC1=CC(=O)C(C(C)=O)C(=O)C12C (centres unmarked) [Usnic acid, usnic acid]
MIC ([3]; >90% inhibition of bacterial growth after 24 h): 1 µg/mL (≈ 2.9 µM) | MBC ([3]; >90% inhibition of the growth at 48 h): 4 µg/mL (≈ 11.6 µM)
